Consider 18 compounds from US20250228239A1, “MOLECULES HAVING PESTICIDAL UTILITY, AND INTERMEDIATES, COMPOSITIONS, AND PROCESSES, RELATED THERETO” (priority 2024, published 2025).

The subject of assay [1] is Beet Armyworm (Spodoptera exigua, LAPHEG). In words: Bioassays on Beet Armyworm (BAW), 128-well diet tray assay. To be noted: Spodoptera exigua. The assay is classed as in vivo. The method in brief: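 Test molecule was dissolved in 90:10 acetone-water and applied at 50 μg/cm^2 onto artificial diet in eight wells, then dried. Second instar larvae, one to five per well, were added, and trays were kept vented at 25° C. with a 14:10 photoperiod for five to seven days before mortality was recorded.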

Assay [2] deals with Cabbage Looper (Trichoplusia ni, TRIPNI). In words: Bioassays on Cabbage Looper (CL), 128-well diet tray assay. Type of assay: in vivo. The settings on record: Trichoplusia ni. The gist of the method:
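Percent mortality, averaged across eight replicate wells, after second-instar larvae (1–5 per well) fed for five to seven days on diet dosed at 50 μg/cm^2. Compound was applied in acetone-water 90:10 and dried; trays kept vented at 25° C under 14:10 photoperiod.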

The mark [3] stands for this setting: Table ABC: Biological Results, species BAW, read-out: BAW.
Where [4] appears, read: Table ABC: Biological Results, species CL, read-out: CL.
[5] abbreviates: Beet Armyworm, Table ABC / ABC-DP rating, read-out: BAW rating.
Setting [6] is: Cabbage Looper, Table ABC / ABC-DP rating, read-out: CL rating.
The mark [7] stands for this setting: Beet Armyworm, rating class, read-out: BAW.
The mark [8] stands for this setting: Cabbage Looper, rating class, read-out: CL.

Where two headings read alike, the source gives them in different places.

Take `CC(C)(C)OC(=O)N(C(=O)OC(C)(C)C)c1c(F)ccc(NC(=O)c2c(F)ccc(NC(=O)[C@H]3[C@H](c4ccc(F)c(Cl)c4)C3(Cl)Cl)c2F)c1F` (relative stereo) [F1109, trans-tert-Butyl-N-tert-butoxycarbonyl-N-[3-[[3-[[2,2-dichloro-3-(3-chloro-4-fluorophenyl)cyclopropanecarbonyl]amino]-2,6-difluorobenzoyl]amino]-2,6-difluorophenyl]carbamate]: the pest or weed control at 50 µg/cm2 in assay [1] (setting [3]) and in assay [2] (setting [4]) was 50 to 100% each time.

Turning to `Nc1c(F)ccc(NC(=O)c2c(Cl)ccc(NC(=O)[C@H]3[C@H](c4ccc(F)c(Cl)c4)C3(Cl)Cl)c2Cl)c1F` (relative stereo) [F1110, trans-N-(3-Amino-2,4-difluorophenyl)-2,6-dichloro-3-(2,2-dichloro-3-(3-chloro-4-fluorophenyl)cyclopropane-1-carboxamido)benzamide], the pest or weed control at 50 µg/cm2 in assay [1] (setting [3]) and in assay [2] (setting [4]) was 50 to 100% throughout.

Consider `O=C(Nc1ccc(F)c(NC(=O)C2(F)OC(F)(F)C(F)(F)C(F)(F)C2(F)F)c1F)c1cc(NC(=O)[C@H]2[C@H](c3ccc(F)c(C(F)(F)F)c3)C2(Cl)Cl)ccc1Cl` (stereo partly drawn) [F1783, N-(3-(2-Chloro-5-((1R,3R)-2,2-dichloro-3-(4-fluoro-3-(trifluoromethyl)phenyl)cyclopropane-1-carboxamido)benzamido)-2,6-difluorophenyl)-2,3,3,4,4,5,5,6,6-nonafluorotetrahydro-2H-pyran-2-carboxamide], for which the pest or weed control at 50 µg/cm2 in assay [1] (setting [5]) and in assay [2] (setting [6]) was 50 to 100% throughout.

On to `CCO[C@H](C)C(=O)Nc1c(F)ccc(NC(=O)c2cc(NC(=O)[C@H]3[C@H](c4ccc(Cl)c(Cl)c4)C3(Cl)Cl)ccc2Cl)c1F` [F1734, 2-Chloro-5-((1R,3R)-2,2-dichloro-3-(3,4-dichlorophenyl)cyclopropane-1-carboxamido)-N-(3-((R)-2-ethoxypropanamido)-2,4-difluorophenyl)benzamide], for which the pest or weed control at 50 µg/cm2 in assay [1] (setting [7]) and in assay [2] (setting [8]) was 50 to 100% in each case.

Regarding `O=C(Nc1ccc(F)c(NC(=O)C(F)(F)C(F)F)c1F)c1cc(NC(=O)[C@H]2[C@H](c3cc(Cl)c(Cl)c(Cl)c3)C2(Cl)Cl)ccc1Cl` [F1567, 2-Chloro-5-((1R,3R)-2,2-dichloro-3-(3,4,5-trichlorophenyl)cyclopropane-1-carboxamido)-N-(2,4-difluoro-3-(2,2,3,3-tetrafluoropropanamido)phenyl)benzamide], the pest or weed control at 50 µg/cm2 in assay [1] (setting [7]) and in assay [2] (setting [8]) was 50 to 100% throughout.

With `CCNC(=O)c1cc(NC(=O)[C@H]2[C@H](c3ccc(F)c(Cl)c3)C2(Cl)Cl)cc(Cl)c1C` (relative stereo) [F2041, trans-3-Chloro-5-(2,2-dichloro-3-(3-chloro-4-fluorophenyl)cyclopropane-1-carboxamido)-N-ethyl-2-methylbenzamide], the pest or weed control at 50 µg/cm2 in assay [1] (setting [5]) and in assay [2] (setting [6]) was 50 to 100% throughout.

On to `C=CC(=O)Nc1c(F)ccc(NC(=O)c2cc(NC(=O)[C@H]3[C@H](c4ccc(F)c(C(F)(F)F)c4)C3(Cl)Cl)ccc2Cl)c1F` [F1877, N-(3-Acrylamido-2,4-difluorophenyl)-2-chloro-5-((1R,3R)-2,2-dichloro-3-(4-fluoro-3-(trifluoromethyl)phenyl)cyclopropane-1-carboxamido)benzamide], for which the pest or weed control at 50 µg/cm2 in assay [1] (setting [5]) and in assay [2] (setting [6]) was 50 to 100% in each case.

On to `O=C(Nc1ccc(F)cc1)c1cc(NC(=O)[C@H]2[C@H](c3cc(Cl)cc(Cl)c3)C2(Cl)Cl)ccc1F` (single isomer, unassigned) [F1374], for which the pest or weed control at 50 µg/cm2 in assay [1] (setting [3]) and in assay [2] (setting [4]) was 50 to 100% throughout.

On to `CN(NC(=O)c1cc(NC(=O)[C@H]2[C@H](c3cc(Cl)cc(Cl)c3)C2(Cl)Cl)ccc1Cl)C(=O)C(F)(F)F` (relative stereo) [F2523, trans-2,2-Dichloro-N-(4-chloro-3-(2-methyl-2-(2,2,2-trifluoroacetyl)hydrazine-1-carbonyl)phenyl)-3-(3,5-dichlorophenyl)cyclopropane-1-carboxamide], for which the pest or weed control at 50 µg/cm2 in assay [1] (setting [5]) and in assay [2] (setting [6]) was 50 to 100% throughout.

With `Cc1c(F)c(N)cc(NC(=O)c2cc(NC(=O)[C@H]3[C@H](c4ccc(F)c(C(F)(F)F)c4)C3(Cl)Cl)ccc2Cl)c1F` [F1674, N-(5-Amino-2,4-difluoro-3-methylphenyl)-2-chloro-5-((1R,3R)-2,2-dichloro-3-(4-fluoro-3-(trifluoromethyl)phenyl)cyclopropane-1-carboxamido)benzamide], the pest or weed control at 50 µg/cm2 in assay [1] (setting [7]) and in assay [2] (setting [8]) was 50 to 100% throughout.

With `C#CCNc1c(F)ccc(NC(=O)c2cc(NC(=O)[C@H]3[C@H](c4ccc(F)c(C(F)(F)F)c4)C3(Cl)Cl)ccc2Cl)c1F` [F1807, 2-Chloro-5-((1R,3R)-2,2-dichloro-3-(4-fluoro-3-(trifluoromethyl)phenyl)cyclopropane-1-carboxamido)-N-(2,4-difluoro-3-(prop-2-yn-1-ylamino)phenyl)benzamide], the pest or weed control at 50 µg/cm2 in assay [1] (setting [5]) and in assay [2] (setting [6]) was 50 to 100% in each case.

In the case of `O=C(Nc1cc(NC(=O)C(F)(F)F)c(F)cc1F)c1cc(NC(=O)[C@H]2[C@H](c3ccc(Cl)c(Cl)c3)C2(Cl)Cl)cc(F)c1F` [F1582, 5-((1R,3R)-2,2-Dichloro-3-(3,4-dichlorophenyl)cyclopropane-1-carboxamido)-N-(2,4-difluoro-5-(2,2,2-trifluoroacetamido)phenyl)-2,3-difluorobenzamide], the pest or weed control at 50 µg/cm2 in assay [1] (setting [7]) and in assay [2] (setting [8]) was 50 to 100% throughout.

For the compound `O=C(COCC(F)(F)F)Nc1c(F)ccc(NC(=O)c2cc(NC(=O)[C@H]3[C@H](c4ccc(Cl)c(Cl)c4)C3(Cl)Cl)ccc2Cl)c1F` [F1863, 2-Chloro-5-((1R,3R)-2,2-dichloro-3-(3,4-dichlorophenyl)cyclopropane-1-carboxamido)-N-(2,4-difluoro-3-(2-(2,2,2-trifluoroethoxy)acetamido)phenyl) benzamide], the pest or weed control at 50 µg/cm2 in assay [1] (setting [5]) and in assay [2] (setting [6]) was 50 to 100% in each case.

With `Nc1ccc(F)c(NC(=O)c2cc(NC(=O)[C@H]3[C@H](c4ccc(F)c(C(F)(F)F)c4)C3(Cl)Cl)cc(F)c2Cl)c1F` [F1339, N-(3-Amino-2,6-difluorophenyl)-2-chloro-5-((1R,3R)-2,2-dichloro-3-(4-fluoro-3-(trifluoromethyl)phenyl)cyclopropane-1-carboxamido)-3-fluorobenzamide], the pest or weed control at 50 µg/cm2 in assay [1] (setting [3]) and in assay [2] (setting [4]) was 50 to 100% in each case.

As to `CC(=O)Nc1c(F)ccc(NC(=O)c2cc(NC(=O)[C@H]3[C@H](c4ccc(Cl)c(Cl)c4)C3(Cl)Cl)cc(C)c2Cl)c1F` [F1543, N-(3-Acetamido-2,4-difluorophenyl)-2-chloro-5-((1R,3R)-2,2-dichloro-3-(3,4-dichlorophenyl)cyclopropane-1-carboxamido)-3-methylbenzamide], the pest or weed control at 50 µg/cm2 in assay [1] (setting [7]) and in assay [2] (setting [8]) was 50 to 100% throughout.

As for `Nc1c(F)ccc(NC(=O)c2cc(NC(=O)[C@H]3[C@H](c4cc(Cl)cc(Cl)c4)C3(Cl)Cl)cc(F)c2Cl)c1F` [F1324, N-(3-Amino-2,4-difluorophenyl)-2-chloro-5-((1R,3R)-2,2-dichloro-3-(3,5-dichlorophenyl)cyclopropane-1-carboxamido)-3-fluorobenzamide], the pest or weed control at 50 µg/cm2 in assay [1] (setting [3]) and in assay [2] (setting [4]) was 50 to 100% throughout.

For the compound `Nc1c(F)ccc(NC(=O)c2c(F)ccc(NC(=O)[C@H]3[C@H](c4ccc(F)c(Cl)c4)C3(Cl)Cl)c2F)c1F` (relative stereo) [F1111, trans-N-(3-Amino-2,4-difluorophenyl)-3-(2,2-dichloro-3-(3-chloro-4-fluorophenyl)cyclopropane-1-carboxamido)-2,6-difluorobenzamide], the pest or weed control at 50 µg/cm2 in assay [1] (setting [3]) and in assay [2] (setting [4]) was 50 to 100% each time.

For `O=C(NNCc1ccc(F)cc1)c1cc(NC(=O)[C@H]2[C@H](c3cc(Cl)cc(Cl)c3)C2(Cl)Cl)ccc1Cl` (relative stereo) [F2570, trans-2,2-dichloro-N-(4-chloro-3-(2-(4-fluorobenzyl)hydrazine-1-carbonyl)phenyl)-3-(3,5-dichlorophenyl)cyclopropane-1-carboxamide], the mortality (commonly the share of the test organisms that died) at 50 µg/cm2 fell in the range of 50 to 100% in assay [1] (168 h, second instar larvae, 50 μg/cm^2 of test molecule on artificial diet, 25° C., five to seven days, average of eight wells, read-out: BAW % Control (or Mortality) rating) and 50 to 100% in assay [2] (168 h, second instar larvae, 50 μg/cm^2 of test molecule on artificial diet, 25° C., five to seven days, average of eight wells, read-out: CL % Control (or Mortality) rating). The pest or weed control at 50 µg/cm2 in assay [1] (setting [5]) and in assay [2] (setting [6]) was 50 to 100% each time.
